“And” between values parts separate entries of the source, which are not always exact repeats. Equal values may be shown once. Read-outs that look alike come from different tables or passages of the source.
How the values were obtained:
[1] = target: T1, TTBK2 (Homo sapiens, UniProt Q6IQ55); experiment: HotSpot kinase assay; type: biochemical; conditions: read-out: IC50 (M) of Control Compound
T1 construct: purchased Reaction Biology Corporation
Description: (§1) Kinase activity were performed by Reaction Biology Corporation using the “HotSpot” assay platform modified from the published procedure.

[2] = target: T2, TTBK1 (Homo sapiens, UniProt Q5TCY1); experiment: HotSpot kinase assay; type: biochemical; conditions: read-out: IC50 (M) of Control Compound
T2 construct: purchased Reaction Biology Corporation
Description: as §1

[3] = target: T3, WNK3 (Homo sapiens, UniProt Q9BYP7); experiment: HotSpot kinase assay; type: biochemical; conditions: read-out: IC50 (M) of Control Compound
T3 construct: purchased Reaction Biology Corporation
Description: as §1

[4] = target: T4, PDK3/PDHK3 (Homo sapiens, UniProt Q15120); experiment: HotSpot kinase assay; type: biochemical; conditions: read-out: IC50 (M) of Control Compound
T4 construct: purchased Reaction Biology Corporation
Description: as §1

[5] = target: T5, ARAF (Homo sapiens, UniProt P10398); experiment: HotSpot kinase assay; type: biochemical; conditions: read-out: IC50 (M) of Control Compound
T5 construct: purchased Reaction Biology Corporation
Description: as §1

[6] = target: T6, PDK1/PDHK1 (Homo sapiens, UniProt Q15118); experiment: HotSpot kinase assay; type: biochemical; conditions: read-out: IC50 (M) of Control Compound
T6 construct: purchased Reaction Biology Corporation
Description: as §1

[7] = target: T7, ZAK/MLTK (Homo sapiens, UniProt Q9NYL2); experiment: HotSpot kinase assay; type: biochemical; conditions: read-out: IC50 (M) of Control Compound
T7 construct: purchased Reaction Biology Corporation
Description: as §1

[8] = target: T8, CK2a (Homo sapiens, UniProt P68400); experiment: HotSpot kinase assay; type: biochemical; conditions: read-out: IC50 (M) of Control Compound
T8 construct: purchased Reaction Biology Corporation
Description: as §1

[9] = target: T9, DYRK4 (Homo sapiens, UniProt Q9NR20); experiment: HotSpot kinase assay; type: biochemical; conditions: read-out: IC50 (M) of Control Compound
T9 construct: purchased Reaction Biology Corporation
Description: as §1

[10] = target: T10, PDK4/PDHK4 (Homo sapiens, UniProt Q16654); experiment: HotSpot kinase assay; type: biochemical; conditions: read-out: IC50 (M) of Control Compound
T10 construct: purchased Reaction Biology Corporation
Description: as §1

[11] = target: T11, PDK2/PDHK2 (Homo sapiens, UniProt Q15119); experiment: HotSpot kinase assay; type: biochemical; conditions: read-out: IC50 (M) of Control Compound
T11 construct: purchased Reaction Biology Corporation
Description: as §1

[12] = target: T12, NEK3 (Homo sapiens, UniProt P51956); experiment: HotSpot kinase assay; type: biochemical; conditions: read-out: IC50 (M) of Control Compound
T12 construct: purchased Reaction Biology Corporation
Description: as §1

[13] = system: PLSCR1; type: cell-based, monkey; conditions: 30 min; drugs 10 μM, immunoglobulins 10 μg/ml
[14] = system: HaCat cells; experiment: apoptosis assay (activated caspases, SYTOX Green); type: cell-based, human; conditions: 10 µM, 24 h (Fig 2b source data)
Description: Cell proliferation and viability were determined using the Cell Titer 96 Aqueous One Solution and optical density was determined using a SpectraMax M5e Molecular Devices multidetection microplate reader. […] The cells were then fixed and stained for activated caspases (red) and SYTOX Green (for integrity of plasma membrane) by Image-iT^TM LIVE red Poly Caspase Detection kit. Nuclei were stained with Hoechst. Images were acquired by laser confocal microscope ZeissLive/DuoScan equipped with oil immersion objectives 63 × 1.1 and captured in an optical slice of 0.37 µm with appropriate filters. Alternatively, immunoblots were prepared and probed with antibodies to cleaved PARP-1 or cleaved caspase 8.

[15] = system: Primary vaginal epithelial cells; experiment: cell proliferation and viability, ~50% confluent; conditions: 1 μM, 120 h (Fig 1d source data)
[16] = system: HaCat cells; experiment: viability of confluent cells; type: cell-based, human; conditions: 10 μM, 72 and 120 h
[17] = system: PtdS and Akt; experiment: translocation of PtdS and Akt to the outer leaflet (microscopy), HSV-2 infected HaCat; type: cell-based, human; conditions: 10µM
[18] = system: PLSCR1; experiment: PLSCR1 phosphorylation (IP/western), HSV-2 infected HaCaT cells; type: cell-based, human; conditions: 10 μM, 30 min
[19] = system: Akt, PDPK1, PLCγ; conditions: apyrase 10 U/ml
[20] = target: T13, TRPM7/CHAK1 (Homo sapiens, UniProt Q96QT4); experiment: HotSpot kinase assay; type: biochemical; conditions: read-out: IC50 (M) of Control Compound
T13 construct: purchased Reaction Biology Corporation
Description: as §1

[21] = in vitro; conditions: dog, MDCK-MDR1
[22] = system: MDCK-MDR1 cell; conditions: 5 µM
[23] = Parallel artificial membrane permeability assay (PAMPA); type: in vitro ADME

T3 sequence (Q9BYP7 whole entry): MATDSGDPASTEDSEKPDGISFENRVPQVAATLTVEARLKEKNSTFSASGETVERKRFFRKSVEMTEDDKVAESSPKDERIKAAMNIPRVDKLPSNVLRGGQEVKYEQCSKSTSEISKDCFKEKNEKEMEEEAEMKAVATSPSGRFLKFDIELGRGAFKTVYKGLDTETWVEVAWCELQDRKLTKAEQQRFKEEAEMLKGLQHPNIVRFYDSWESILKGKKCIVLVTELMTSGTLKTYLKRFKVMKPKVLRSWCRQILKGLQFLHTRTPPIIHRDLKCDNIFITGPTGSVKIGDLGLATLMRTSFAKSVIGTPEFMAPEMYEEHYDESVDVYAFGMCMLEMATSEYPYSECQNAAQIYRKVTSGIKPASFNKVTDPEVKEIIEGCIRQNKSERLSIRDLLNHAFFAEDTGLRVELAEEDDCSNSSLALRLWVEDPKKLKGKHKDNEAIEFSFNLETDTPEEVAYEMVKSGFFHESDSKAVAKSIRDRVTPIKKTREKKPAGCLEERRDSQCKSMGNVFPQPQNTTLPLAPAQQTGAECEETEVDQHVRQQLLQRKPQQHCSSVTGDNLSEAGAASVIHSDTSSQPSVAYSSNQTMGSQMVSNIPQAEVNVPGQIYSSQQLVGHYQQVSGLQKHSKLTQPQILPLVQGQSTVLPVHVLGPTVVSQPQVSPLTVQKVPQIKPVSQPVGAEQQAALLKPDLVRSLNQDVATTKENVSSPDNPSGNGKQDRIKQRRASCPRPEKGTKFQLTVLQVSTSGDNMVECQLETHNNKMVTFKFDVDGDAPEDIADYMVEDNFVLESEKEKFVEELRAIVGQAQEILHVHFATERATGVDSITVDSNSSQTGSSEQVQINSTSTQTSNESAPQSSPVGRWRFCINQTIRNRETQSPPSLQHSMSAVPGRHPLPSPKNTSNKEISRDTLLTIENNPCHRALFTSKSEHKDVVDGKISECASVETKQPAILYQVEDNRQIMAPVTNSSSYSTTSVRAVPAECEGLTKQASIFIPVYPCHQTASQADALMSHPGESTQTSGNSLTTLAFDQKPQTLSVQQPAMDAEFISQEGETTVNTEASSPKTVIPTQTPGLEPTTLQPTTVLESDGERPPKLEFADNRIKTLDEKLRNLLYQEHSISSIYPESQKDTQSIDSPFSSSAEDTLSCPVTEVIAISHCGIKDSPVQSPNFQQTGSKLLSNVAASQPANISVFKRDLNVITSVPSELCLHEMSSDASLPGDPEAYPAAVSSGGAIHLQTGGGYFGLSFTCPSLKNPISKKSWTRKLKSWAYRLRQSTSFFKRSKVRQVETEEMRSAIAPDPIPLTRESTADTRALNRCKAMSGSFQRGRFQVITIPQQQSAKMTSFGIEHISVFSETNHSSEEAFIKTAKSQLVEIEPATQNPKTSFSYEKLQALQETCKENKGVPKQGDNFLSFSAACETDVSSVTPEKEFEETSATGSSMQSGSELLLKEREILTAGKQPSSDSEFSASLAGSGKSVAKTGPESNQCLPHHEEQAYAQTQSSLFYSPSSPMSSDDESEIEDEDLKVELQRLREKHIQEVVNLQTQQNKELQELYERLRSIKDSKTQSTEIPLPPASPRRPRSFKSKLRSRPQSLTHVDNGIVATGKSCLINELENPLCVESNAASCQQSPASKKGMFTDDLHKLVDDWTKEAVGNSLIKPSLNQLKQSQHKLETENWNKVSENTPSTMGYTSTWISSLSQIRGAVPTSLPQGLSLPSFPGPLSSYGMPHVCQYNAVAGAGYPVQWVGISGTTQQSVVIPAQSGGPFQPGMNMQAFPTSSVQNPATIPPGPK
T12 sequence (P51956 whole entry): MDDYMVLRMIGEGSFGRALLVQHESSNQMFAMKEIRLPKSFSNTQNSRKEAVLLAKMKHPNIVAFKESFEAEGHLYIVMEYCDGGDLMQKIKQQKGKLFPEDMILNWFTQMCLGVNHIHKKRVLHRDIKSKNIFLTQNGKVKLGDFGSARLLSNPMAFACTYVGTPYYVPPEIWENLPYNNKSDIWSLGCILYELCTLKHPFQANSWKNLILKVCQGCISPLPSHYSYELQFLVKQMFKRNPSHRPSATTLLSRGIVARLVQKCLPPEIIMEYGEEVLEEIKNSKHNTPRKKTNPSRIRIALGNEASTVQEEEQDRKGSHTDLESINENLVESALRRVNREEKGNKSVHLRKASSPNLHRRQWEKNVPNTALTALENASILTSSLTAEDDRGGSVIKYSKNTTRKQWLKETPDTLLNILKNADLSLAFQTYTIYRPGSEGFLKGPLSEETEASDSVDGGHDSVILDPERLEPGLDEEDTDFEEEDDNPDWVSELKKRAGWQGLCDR
T10 sequence (Q16654 whole entry): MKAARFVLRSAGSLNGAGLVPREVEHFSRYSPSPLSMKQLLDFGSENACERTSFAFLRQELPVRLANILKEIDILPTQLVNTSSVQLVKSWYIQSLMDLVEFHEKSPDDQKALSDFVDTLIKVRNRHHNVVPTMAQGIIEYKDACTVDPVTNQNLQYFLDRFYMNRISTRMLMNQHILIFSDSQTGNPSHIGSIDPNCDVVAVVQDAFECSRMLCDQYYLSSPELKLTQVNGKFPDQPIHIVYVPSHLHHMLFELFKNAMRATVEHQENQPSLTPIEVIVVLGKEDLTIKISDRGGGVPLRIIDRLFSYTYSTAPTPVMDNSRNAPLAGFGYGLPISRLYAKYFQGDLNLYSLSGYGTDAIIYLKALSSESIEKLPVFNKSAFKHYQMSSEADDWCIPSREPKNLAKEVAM
T7 sequence (Q9NYL2 whole entry): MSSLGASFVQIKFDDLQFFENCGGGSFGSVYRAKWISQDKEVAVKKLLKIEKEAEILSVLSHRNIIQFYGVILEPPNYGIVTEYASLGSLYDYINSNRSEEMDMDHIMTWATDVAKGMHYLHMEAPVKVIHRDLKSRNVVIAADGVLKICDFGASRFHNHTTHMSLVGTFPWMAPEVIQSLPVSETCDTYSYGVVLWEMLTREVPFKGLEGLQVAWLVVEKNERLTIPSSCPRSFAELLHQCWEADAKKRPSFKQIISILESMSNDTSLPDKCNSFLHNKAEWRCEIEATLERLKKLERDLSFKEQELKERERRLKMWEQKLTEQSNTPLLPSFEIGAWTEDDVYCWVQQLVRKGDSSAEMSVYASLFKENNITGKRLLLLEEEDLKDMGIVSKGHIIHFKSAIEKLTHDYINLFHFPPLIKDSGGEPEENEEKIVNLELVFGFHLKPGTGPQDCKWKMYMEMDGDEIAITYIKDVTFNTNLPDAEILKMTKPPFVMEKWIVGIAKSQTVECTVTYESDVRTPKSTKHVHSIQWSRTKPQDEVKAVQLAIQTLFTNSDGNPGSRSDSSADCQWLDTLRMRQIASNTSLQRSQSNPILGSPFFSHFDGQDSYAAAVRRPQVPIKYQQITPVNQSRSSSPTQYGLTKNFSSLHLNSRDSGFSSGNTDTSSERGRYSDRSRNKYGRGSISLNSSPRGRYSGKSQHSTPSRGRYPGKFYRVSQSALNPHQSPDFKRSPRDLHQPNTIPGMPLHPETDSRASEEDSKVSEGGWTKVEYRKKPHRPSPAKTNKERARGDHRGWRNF
T4 sequence (Q15120 whole entry): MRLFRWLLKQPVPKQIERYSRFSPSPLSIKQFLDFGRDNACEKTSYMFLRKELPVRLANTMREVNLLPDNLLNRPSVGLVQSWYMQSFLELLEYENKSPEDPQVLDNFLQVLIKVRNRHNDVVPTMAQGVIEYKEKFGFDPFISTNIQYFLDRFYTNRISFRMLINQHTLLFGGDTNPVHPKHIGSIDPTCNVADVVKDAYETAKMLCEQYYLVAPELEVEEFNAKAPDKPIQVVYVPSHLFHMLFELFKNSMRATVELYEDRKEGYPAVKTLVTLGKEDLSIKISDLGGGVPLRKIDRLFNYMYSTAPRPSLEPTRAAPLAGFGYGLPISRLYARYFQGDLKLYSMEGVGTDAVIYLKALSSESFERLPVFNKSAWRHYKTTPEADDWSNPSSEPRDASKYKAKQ
T6 sequence (Q15118 29-436): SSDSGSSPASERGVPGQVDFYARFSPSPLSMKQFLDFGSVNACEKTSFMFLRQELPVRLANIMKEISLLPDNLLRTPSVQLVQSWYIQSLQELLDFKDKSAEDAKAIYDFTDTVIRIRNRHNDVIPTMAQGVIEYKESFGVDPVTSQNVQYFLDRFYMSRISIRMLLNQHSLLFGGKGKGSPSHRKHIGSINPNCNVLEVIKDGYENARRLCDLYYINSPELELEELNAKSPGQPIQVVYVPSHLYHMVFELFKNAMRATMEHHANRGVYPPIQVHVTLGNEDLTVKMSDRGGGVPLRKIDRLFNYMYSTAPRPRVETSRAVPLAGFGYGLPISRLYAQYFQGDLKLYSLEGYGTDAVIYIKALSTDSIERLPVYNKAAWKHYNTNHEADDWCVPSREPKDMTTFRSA
T5 sequence (P10398 whole entry): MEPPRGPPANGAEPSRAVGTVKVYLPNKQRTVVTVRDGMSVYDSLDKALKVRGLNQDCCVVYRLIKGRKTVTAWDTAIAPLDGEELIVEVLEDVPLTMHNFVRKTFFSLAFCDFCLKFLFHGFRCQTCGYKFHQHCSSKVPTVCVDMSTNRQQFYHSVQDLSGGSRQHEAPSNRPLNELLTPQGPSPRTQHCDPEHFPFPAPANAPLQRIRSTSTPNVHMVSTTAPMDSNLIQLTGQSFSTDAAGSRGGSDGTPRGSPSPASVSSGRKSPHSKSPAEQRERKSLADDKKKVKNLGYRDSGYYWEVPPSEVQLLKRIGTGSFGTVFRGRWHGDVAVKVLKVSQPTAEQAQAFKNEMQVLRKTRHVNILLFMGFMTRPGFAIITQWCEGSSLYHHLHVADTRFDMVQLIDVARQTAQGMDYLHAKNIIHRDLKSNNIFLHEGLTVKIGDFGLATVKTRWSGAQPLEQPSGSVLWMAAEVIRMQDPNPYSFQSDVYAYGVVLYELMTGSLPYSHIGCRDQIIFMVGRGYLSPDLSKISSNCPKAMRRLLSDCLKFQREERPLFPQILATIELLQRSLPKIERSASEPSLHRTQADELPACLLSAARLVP

Oc1ccc(-c2nc(-c3ccncc3)c(-c3ccc(F)cc3)[nH]2)cc1 [SB202190, reference compound]
IC50 [1]: 4.31e-06 M
IC50 [2]: 6.89e-06 M

O=C1NC(=O)c2c1c(-c1ccccc1Cl)cc1[nH]c3ccc(O)cc3c21 [Wee-1 Inhibitor, reference compound]
IC50 [3]: 1.49e-06 M

O=C1Nc2ccc(I)cc2/C1=C/c1cc(Br)c(O)c(Br)c1 [GW5074, reference compound]
IC50 [4]: 2.57e-06 M
IC50 [5]: 1.39e-08 M
IC50 [6]: 8.63e-06 M
IC50 [7]: 1.89e-06 M
IC50 [8]: 2.67e-07 M
IC50 [9]: 4.12e-06 M
IC50 [10]: 1.89e-06 M
IC50 [11]: 5.05e-06 M

CN(C)C/C=C/C(=O)Nc1cccc(C(=O)Nc2ccc(Nc3nccc(-c4cccnc4)n3)cc2)c1 [JNK-IN-7, reference compound]
IC50 [12]: 5.46e-08 M

CN[C@@H]1C[C@H]2O[C@@](C)([C@@H]1OC)n1c3ccccc3c3c4c(c5c6ccccc6n2c5c31)C(=O)NC4 [Staurosporine, reference compound]
Phosphorylation of PLSCR1 [13]: inhibited
Activated caspase positive (percentage of cells) [14]: 100% and 75% and 87.5%
SYTOX green positive (percentage of cells) [14]: 75% and 88.8% and 91.6%
cell proliferation and viability, odu as a percentage of the DMSO control [15]: 39.5% and 67.5%
cytotoxicity [16]: completely cytotoxic
translocation of PtdS and Akt to the outer leaflet of the plasma membrane [17]: inhibited
Phosphorylation of PLSCR1 [18]: inhibited

Apyrase [reference compound]
HSV-induced phosphorylation of Akt and PDPK1 in non-permeabilized cells [19]: inhibited

CCCCCCCCCCCCCCCCn1cc[n+](Cc2ccccc2)c1C [NH125, reference compound]
IC50 [20]: 2.34e-05 M

CC(C)NCC(O)COc1cccc2ccccc12 (stereo not shown) [Propranolol]
Papp at 1 h, 5 μM [21]: 67.4 ×10⁻⁶ cm/s
Recover % [22]: 93%
Recover % ([23]; 100 µM): 85%
Papp at 5 h, 100 μM ([23]; PAMPA, PBS pH 7.4, 5 h): 8.99 ×10⁻⁶ cm/s

From paper PMC9569420 (Communications Biology, 2022)
